≈ marks a conversion by molar mass, not a printed value.
Conditions: buffer; pH 7.4; 200.0 µM

solubility kinetic | Structure (SMILES)
2.3 µg/mL (≈ 5.8 µM) | NC(=O)c1ccc(N2CCN(S(=O)(=O)c3cccs3)CC2)c([N+](=O)[O-])c1
5.1 µg/mL (≈ 12.3 µM) | CC(=O)c1cccc(NC(=O)/C=C/c2ccc(S(=O)(=O)N3CCOCC3)cc2)c1
> 52.4 µg/mL | CC1(C)Cc2c(C#N)c(SCCO)nc(N3CCOCC3)c2CO1
0.5 µg/mL (≈ 1.49 µM) | O=C(Nc1ccc(N2CCCC2)cc1)c1ccc(Cl)cc1Cl
22.9 µg/mL (≈ 93 µM) | CCOc1ccc(C2=CSC3=NCCN23)cc1
34.6 µg/mL (≈ 122 µM) | O=C(CCc1ccccc1)NC1C2CC3CC(C2)CC1C3 (stereo not given)
> 57.8 µg/mL | CN(C)C(=O)CSc1nc2cc(S(=O)(=O)N3CCOCC3)ccc2o1
> 49.1 µg/mL | CCC1(C)Cc2ccccc2-c2nc(NCCCO)n(C)c(=O)c21 (stereo not given)
41.8 µg/mL (≈ 120 µM) | CCN(CC)c1ccc(N)cc1S(=O)(=O)Nc1ccccc1OC
> 57.4 µg/mL | COC(=O)c1ccc(N2CCN(C(C)=O)CC2)c(NC(=O)c2cccnc2)c1
2.3 µg/mL (≈ 7.44 µM) | O=C(NC(=O)c1ccccc1O)c1ccc(C(F)(F)F)cc1
> 40.3 µg/mL | CC(C)N1CCN(Cc2ccsc2)CC1CCO (stereo not given)
25.9 µg/mL (≈ 82.6 µM) | CC(Oc1ccccc1)C(=O)NC1CCSc2ccccc21 (stereo not given)
0.4 µg/mL (≈ 1.23 µM) | CC(=O)Nc1ccc(-c2csc(Nc3cc(C)ccn3)n2)cc1
44.4 µg/mL (≈ 135 µM) | COc1ccccc1-c1noc(CCCC(=O)NC2CCCC2)n1
8.3 µg/mL (≈ 24.1 µM) | Cc1cccc(C)c1NC(=O)c1ccc2c(c1)CCN2S(C)(=O)=O
1.6 µg/mL (≈ 4.19 µM) | N#CCc1ccc(NC(=O)c2ccc(CN3CCc4ccccc4C3)cc2)cc1
25.9 µg/mL (≈ 92.1 µM) | O=c1c(Cc2ccccc2)c(O)ccn1Cc1ccco1
19.7 µg/mL (≈ 50.8 µM) | Cc1cnc(NC(=O)Cc2ccc(S(=O)(=O)N3CCOCC3)s2)s1
59.1 µg/mL (≈ 146 µM) | COc1ccc(C(CNC(=O)Cc2c(F)cccc2Cl)N2CCCCC2)cc1 (stereo not given)
> 37.1 µg/mL | Cc1nn(C)c(C)c1NC(=O)/C(C#N)=C\N(C)C

solubility kinetic | Structure (SMILES)
5.6 µg/mL (≈ 16.8 µM) | CSc1ccc(CN2C(=O)NC3(CCCCCCC3)C2=O)cc1
> 51.4 µg/mL | CCc1ccccc1NC(=O)C1CCN(C(=O)c2cccs2)CC1
> 45.5 µg/mL | N#CC1(NC(=O)COc2ccccc2[N+](=O)[O-])CCCCC1
5 µg/mL (≈ 15.8 µM) | Cc1ccc(NS(=O)(=O)c2ccc3[nH]c(=O)[nH]c3c2)c(C)c1
> 53.5 µg/mL | Cc1ccc(-n2c(C)cc(C(=O)OCC(=O)N3CCOCC3)c2C)cc1
> 42.9 µg/mL | O=C(NCCCN1CCCC1=O)c1cc2ccccc2o1
5.8 µg/mL (≈ 22.3 µM) | CC(C)OC(=O)C(C)Nc1ccc(F)c(Cl)c1 (stereo not given)
48.6 µg/mL (≈ 150 µM) | COc1ccc(S(=O)(=O)N2CCN(C(=O)C3CC3)CC2)cc1
25.8 µg/mL (≈ 81.3 µM) | CC(=O)c1ccc(OCCCC(=O)NC2CCCCC2C)cc1 (stereo not given)
> 41.6 µg/mL | COC(C(=O)Nc1c(F)cccc1F)c1ccccc1 (stereo not given)
0.3 µg/mL (≈ 0.983 µM) | COc1cccc(Nc2nc(C)nc3c2oc2ccccc23)c1
6.3 µg/mL (≈ 29.8 µM) | Fc1cccc(CN2CCSCC2)c1
4.9 µg/mL (≈ 19.3 µM) | Cc1cc2ccccn2c1C(=O)c1cccc(F)c1
13 µg/mL (≈ 38.9 µM) | COc1ccc(NC(C)=O)cc1NC(=O)c1ccc2ccccc2c1
> 46.8 µg/mL | COc1ccccc1N1C(=O)CC(N(O)c2ccccc2)C1=O (stereo not given)
48.2 µg/mL (≈ 141 µM) | COc1ccc(OCC(=O)Nc2ccc3c(c2)n(C)c(=O)n3C)cc1
9.4 µg/mL (≈ 30.2 µM) | O=C(NCCc1ccc(F)cc1)c1cc(=O)c2ccccc2o1
> 44.2 µg/mL | O=C1C(Cl)=C(N2CCCC2)C(=O)N1c1ccccc1F
> 38.9 µg/mL | CN(C)/C=C/C(=O)c1cnc(-c2ccccn2)s1
> 43.5 µg/mL | O=C(CCNC(=O)c1ccco1)NCc1ccc(F)cc1
> 45.8 µg/mL | Cc1cc(C(C)(C)C)ccc1NC(=O)CC(C)(C)CC(=O)O

solubility kinetic | Structure (SMILES)
> 46.7 µg/mL | O=c1[nH]cc(S(=O)(=O)Nc2ccc3c(c2)OCO3)c(=O)[nH]1
> 47.2 µg/mL | COCCC(=O)N1CCc2c([nH]c3ccccc23)C1C(C)(C)C (stereo not given)
> 41.5 µg/mL | CC(C)NC(=O)[C@@H]1CSC2c3ccccc3C(=O)N21 (stereo not given in full)
1.8 µg/mL (≈ 5.18 µM) | O=C(CSc1nc2ncc(Cl)cc2[nH]1)c1ccc2c(c1)OCO2
< 0.8 µg/mL | FC(F)(F)c1cnc(COc2cc(Cl)cc(Cl)c2)c(Cl)c1
> 60.4 µg/mL | O=S(=O)(Nc1ccc(S(=O)(=O)N2CCCC2)cc1)c1ccc(F)cc1F
> 46.6 µg/mL | CCNS(=O)(=O)c1ccc(CCC(=O)N2CCCC2)cc1
13.8 µg/mL (≈ 39.8 µM) | COc1ccccc1/C=C/C(=O)OCC(=O)NC(=O)NC1CCCC1
< 0.6 µg/mL | COc1ccccc1C(=O)Nc1cccc2c1CCCC2
1.4 µg/mL (≈ 4.25 µM) | Cc1ccc(C)c(NS(=O)(=O)c2ccc3oc(=O)ccc3c2)c1
> 44.4 µg/mL | O=C(Cc1ccccc1)NCC(=O)N/N=C/c1cccnc1
25.1 µg/mL (≈ 74.2 µM) | COc1ccc(CC(=O)N2CCN(c3cccc(C)c3C)CC2)cc1
10.9 µg/mL | Br.C=CCn1c(C)csc1=Nc1ccccc1C
< 0.8 µg/mL | COc1ccc(/C=C/c2ccc3cccc(O)c3n2)cc1Br
> 44.3 µg/mL | O=C(Nc1ccncc1)C1CC(=O)N(Cc2ccccc2)C1 (stereo not given)
< 0.3 µg/mL | Cn1c(CNC(=O)C2CCCCC2)cc2cc(Cl)ccc21
> 46.7 µg/mL | CCc1ccc(CN(C)C(=O)c2ccc3c(c2)OCCO3)cc1
9 µg/mL (≈ 34.7 µM) | CCc1ccc(C(C)NC(=O)c2cccs2)cc1 (stereo not given)
52.5 µg/mL (≈ 146 µM) | CCOc1ccc(NC(=O)CN(C)C(=O)c2ccc(C)o2)cc1OCC
> 38 µg/mL | CCCCCC1C/C(=N\O)C=C(C)C1C(=O)OC (stereo not given)
> 43.9 µg/mL | CCOC(=O)C(=O)N1CCN(c2ccccc2OC)CC1

solubility kinetic | Structure (SMILES)
46.1 µg/mL (≈ 145 µM) | CCN1CCN(c2nc(-c3ccccc3)c3ccccc3n2)CC1
2.5 µg/mL (≈ 7.28 µM) | CSc1nc2nc(-c3cccs3)cc(C(F)(F)F)c2c(=O)[nH]1
3.3 µg/mL (≈ 10.7 µM) | COC(=O)C1=C(C)N(c2ccccc2)/C(=C/c2ccco2)C1=O
16.3 µg/mL (≈ 43.3 µM) | CCOC(=O)N1CCN(CC(=O)Nc2cc(OC)c(OC)cc2C#N)CC1
> 53.6 µg/mL | CCOc1ccccc1C(=O)OCC(=O)NCc1ccc2c(c1)OCO2
9.7 µg/mL (≈ 30.6 µM) | Cc1csc(=O)n1CC(=O)Nc1ccc(Cl)c(Cl)c1
13.9 µg/mL (≈ 42.7 µM) | CCCCS(=O)(=O)N1CCCC(C(=O)Oc2ccccc2)C1 (stereo not given)
38.8 µg/mL (≈ 137 µM) | O=C(Cc1ccc(Br)cc1)N1CCOCC1
> 44 µg/mL | COc1ccc(C(=O)NCCN2CCCC2)cc1[N+](=O)[O-]
> 37.5 µg/mL | O=C(O)C1CCN(c2ccccc2[N+](=O)[O-])CC1
7 µg/mL (≈ 15.7 µM) | CCOc1ccc(NC(=O)Cc2ccc(S(=O)(=O)N3CCCCC3)cc2)cc1OCC
42.2 µg/mL (≈ 116 µM) | COc1ccccc1NC(=S)N1CCn2cccc2C1c1cccnc1 (stereo not given)
> 43.5 µg/mL | CN1CCOC(c2ccccc2)c2ccccc2C1.Cl (stereo not given)
1.7 µg/mL (≈ 6.22 µM) | CC(C)(C)N(Cc1ccccc1)C(=O)c1cccs1
4.1 µg/mL (≈ 15.7 µM) | CC(C)(C)C1CCCCC1NC(=O)c1ccncc1 (stereo not given)
4.8 µg/mL (≈ 13.4 µM) | Nc1cc(=O)[nH]c(SCC(=O)Nc2ccc(N3CCCCC3)cc2)n1
7.7 µg/mL (≈ 23.2 µM) | Cc1cnc(C(=O)OCC(=O)c2ccc(-c3ccccc3)cc2)cn1
> 47.5 µg/mL | CN(C(=O)CNc1ccccc1Cl)C1CCS(=O)(=O)C1 (stereo not given)
14.7 µg/mL (≈ 39.5 µM) | Cc1ccc(CN(C)C(=O)c2ccccc2Sc2ccccc2C#N)cc1
> 36.1 µg/mL | CC(C)Cc1ccc(C(C)C(=N)N)cc1.Cl (stereo not given)
12.1 µg/mL (≈ 30 µM) | CC(C)C(NC(=O)c1c(F)cccc1F)C(=O)N1CCN(c2ncccn2)CC1 (stereo not given)

Structure (SMILES) | solubility kinetic
O=C(Cn1c(=O)n(CC2CS2)c2ccccc21)N1CCCCCC1 (stereo not given) | 44.3 µg/mL (≈ 128 µM)
